Laboratory results from article PMC6302136, “Quantitative Chemotherapeutic Profiling of Gynecologic Cancer Cell Lines Using Approved Drugs and Bioactive Compounds^” (Translational Oncology, 2018).
Where two headings read alike, the source gives them in different places.

Key:
HeLa cells = assay: qHTS ATPlite cell viability, HeLa cells; type: cell-based, human; details: for Avg SI: HeLa selective compounds, vs HEK 293T; for IC50: HeLa, confirmation screen, 48 h
HEK 293T cells [1] = assay: cells; details: for IC50: read-out: IC50 (HEK 293T toxicity)
Procedure: (§1) The ATPlite luminescence assay system assay kit was used to determine cell viability. The reagent was reconstituted and prepared as described by the manufacturer. To measure the cell death caused by the compounds, cells were cultured in 4 μl of media for 16 hours at 37°C with 5% CO2 in assay plates, followed by the addition of DMSO or 16 SOC chemotherapeutic compounds dissolved in DMSO. SOC compounds were dosed at 11 concentrations (1:3 dilution) in quadruplicate from 57.5 μM to 0.977 nM using the automated Wako 1536 Pin Tool workstation and incubated at 37°C with 5% CO2 for 24, 48, or 72 hours. Four microliters of ATPlite, the ATP monitoring reagent, was then added to each well of the assay plates using the Multidrop Combi reagent dispenser followed by incubation for 15 minutes at room temperature. The resulting luminescence was measured using the ViewLux plate reader. Data were normalized for each drug using the largest luminescence value as 100% full cell viability (0% cell killing) and to the smallest luminescence value 0% viability (100% cell killing).
(§2) A qHTS [79], in which each compound was assayed in five concentrations (0.092, 0.46, 2.3, 11.5, and 57.5 μM), was performed for the primary compound screen using the NPC [80] and NPACT drug libraries at NCATS. The OBGYN cancer and HEK 293T control cells were seeded into 1536-well assay plates at 1000 cells per 4 μl/well and incubated at 37°C in 5% CO2 for 48 hours. The ATPlite assay to determine the IC50 values for each compound was conducted as described above. Plates were processed on the fully integrated Kalypsys robotic system.

HEK 293T cells [2] = tested on: HEK 293T cells; design: method as in PMID 31498718; details: CellTiterGlo, cited from earlier work; for IC50: independent screen
[3] = tested on: 11 gynecologic cancer cell lines; assay: qHTS ATPlite cell viability, gynecologic cancer cell lines (ovarian, cervical, placental); type: cell-based, human; details: for Average SI: selectivity index vs HEK 293T; for Cell Lines Active: number of the 11 cancer cell lines in which the compound is active (<1 μM potency, >70% efficacy)
Procedure: as §1, §2

[4] = tested on: placental cancer cell lines (JAR, JEG-3); assay: qHTS ATPlite cell viability, placental cancer cell lines; type: cell-based, human; details: for Average SI: vs HEK 293T, >100 = inactive in HEK293T
Procedure: as §1
The ATPlite assay to determine the IC50 values for each compound was conducted as described above. Plates were processed on the fully integrated Kalypsys robotic system.

PA-1 cells = assay: ATP content (ATPlite) cell viability assay in PA-1 cells; type: cell-based, human; details: for IC50: Homo sapiens, PA-1, confirmation screen, 48 h, read-out: Avg IC50; for Avg SI: PA-1 selective compounds, vs HEK 293T, >100 = inactive in HEK293T
[5] = tested on: ovarian cancer cell lines; assay: qHTS ATPlite cell viability, ovarian cancer cell lines; type: cell-based, human; details: Ovarian cell line killer; for IC50: mean of cell lines fulfilling criteria, 48 h, read-out: Average IC50; for Average SI: vs HEK 293T, >100 = inactive in HEK293T
[6] = HEK 293T, this screen (ATPlite), 48 h
[7] = toxic compounds, average over all cancer cell lines, mean ± S.D.
[8] = Homo sapiens, JEG-3, Placental cancer cell line killer, mean of cell lines fulfilling criteria, 48 h, read-out: Average IC50
[9] = Placental cancer cell line killer
[10] = Homo sapiens, average IC90 over the cell lines in which the compound is active, read-out: IC90
[11] = Homo sapiens, toxic compounds, average over all cancer cell lines, 48 h, mean ± S.D., read-out: Average IC50

COc1cc(N2CCC(N)CC2)ccc1Nc1ncc(Cl)c(-c2c[nH]c3ccccc23)n1 [AZD3463]
Avg SI (HeLa cells): 30.3 | IC50 (HeLa cells): 638 nM

O=C(CCCCCCC(=O)Nc1ccccc1)NO [Vorinostat]
Efficacy (%) (HEK 293T toxicity) (HEK 293T cells [1]; [6]): 64.7% | toxicity to HEK 293T cells (HEK 293T cells [1]; compared with suppression of the 11 gynecologic cancer cell lines): equally toxic to HEK 293T cells | Efficacy (%) (independent screen, HEK 293T) (HEK 293T cells [2]): 80.2% | Independent Screen (confirmation of HEK 293T toxicity) (HEK 293T cells [2]): Confirmed toxic

Cc1ccc(C(=O)Nc2ccc(CN3CCN(C)CC3)c(C(F)(F)F)c2)cc1C#Cc1cnc2cccnn12 [Ponantinib]
IC50 ([3]; Homo sapiens, 48 h, read-out: Average IC50 (μM)): 15.9 ± 9.07 µM | Average SI [3, 7]: 3.56 ± 4.85 | Efficacy (%) (HEK 293T toxicity) (HEK 293T cells [1]; [6]): 92% | IC50 (HEK 293T cells [1]; Homo sapiens, HEK-293T, 48 h): 19900 nM | Efficacy (%) (independent screen, HEK 293T) (HEK 293T cells [2]): 92.6% | Independent Screen (confirmation of HEK 293T toxicity) (HEK 293T cells [2]): Confirmed toxic | IC50 (HEK 293T cells [2]): 811 nM

C[C@@H](Oc1cc(-n2cnc3ccc(CN4CCN(C)CC4)cc32)sc1C(N)=O)c1ccccc1C(F)(F)F [GSK461364]
IC50 [4, 8]: 3.52 ± 0.133 µM | Average SI [4, 9]: 8.81 ± 0.333

Cc1csc(NC(=O)CSc2nc3c(c(C(F)(F)F)c2C#N)CCC3)n1 [Irestatin 9389]
IC50 ([3]; toxic compounds, average over all cancer cell lines, 48 h, mean ± S.D., read-out: Average IC50): 3.52 ± 3.12 µM | Average SI [3, 7]: 0.51 ± 0.20 | Efficacy (%) (HEK 293T toxicity) (HEK 293T cells [1]; [6]): 102% | IC50 (HEK 293T cells [1]; [6]): 1340 nM

COc1c(C)c2c(c(O)c1C/C=C(\C)CCC(=O)OCCN1CCOCC1)C(=O)OC2 [Mycophenolate mofetil]
IC50 (PA-1 cells): 631 nM | Avg SI (PA-1 cells): >100 | Avg SI (PA-1 cells; listed as mycophenolate mofetil): > 100

CN(NC(=O)CC(=O)NN(C)C(=S)c1ccccc1)C(=S)c1ccccc1 [Elesclomol]
IC90 [3, 10]: 283 nM | IC50 ([3]; Homo sapiens, average over the cell lines in which the compound was active, read-out: average IC50): 0.173 µM | Cell Lines Active [3]: six | Cell Lines Active ([3]; listed as Elesclomol (STA-4783)): 6

COc1cccc2c1C(=O)c1c(O)c3c(c(O)c1C2=O)C[C@@](O)(C(=O)CO)C[C@@H]3O[C@H]1C[C@H](N)[C@H](O[C@@H]2CCCCO2)[C@H](C)O1 [Pirarubicin]
IC50 (PA-1 cells): 839 nM | Avg SI (PA-1 cells): 14.6

C[C@@H](Oc1ccc2[nH]nc(/C=C/c3cnn(CCO)c3)c2c1)c1c(Cl)cncc1Cl [LY2874455]
Avg SI (HeLa cells): 38.8 | IC50 (HeLa cells; Homo sapiens): 240 nM

Cc1cc(Nc2nc(N[C@@H](C)c3ccc(F)cc3)c(C#N)cc2F)[nH]n1 [AZ-960]
IC50 ([5]; Homo sapiens): 12000 ± 7750 nM | Average SI [5]: >100

CCS(=O)(=O)c1cccc(-c2cc(C(=O)NC3CCN(C)CC3)c(C)c3[nH]c4ncc(C)cc4c23)c1 [TAK 901]
Avg SI (HeLa cells): 12.6 | IC50 (HeLa cells; Homo sapiens): 699 nM

CNc1nccc(-c2cccnc2Oc2cc(C(=O)Nc3cccc(C(F)(F)F)c3)ccc2C)n1 [AMG-Tie2-1]
IC50 [5]: 15900 ± 9710 nM | Average SI [5]: >100

N=C(N)c1ccc(OCCCCCOc2ccc(C(=N)N)cc2)cc1 [Nebupent]
IC50 [4, 8]: 4.9 ± 1.02 µM | Average SI [4, 9]: >100

C=C(C)[C@H]1Cc2c(ccc3c2O[C@@H]2COc4cc(OC)c(OC)cc4[C@@H]2C3=O)O1 [Rotenone]
IC50 ([4]; Homo sapiens, JEG-3, 48 h, read-out: Average IC50 (μM)): 0.0418 ± 0.0134 µM | Average SI [4, 9]: 19.5 ± 6.26

O=C(Nc1cccnc1)N1CCC(Cc2cccc(Oc3ccc(C(F)(F)F)cn3)c2)CC1 [PF-3845]
IC50 [4, 8]: 9.31 ± 1.15 µM | Average SI [4, 9]: >100

CC[C@@]1(O)C(=O)OCc2c1cc1n(c2=O)Cc2c-1nc1ccccc1c2/C=N/OC(C)(C)C [Gimatecan]
IC50 (PA-1 cells): 33.7 nM | Avg SI (PA-1 cells): 12.5 | IC90 [3, 10]: 275 ± 28 nM | Cell Lines Active [3]: 4

CCN(CC)Cc1ccc2cc(COC(=O)Nc3ccc(C(=O)NO)cc3)ccc2c1 [Givinostat]
IC50 [3, 11]: 3.5 ± 3.88 µM | Average SI [3, 7]: 1.74 ± 1.25 | Efficacy (%) (HEK 293T toxicity) (HEK 293T cells [1]; [6]): 65.6% | IC50 (HEK 293T cells [1]; Homo sapiens, HEK-293T, 48 h): 2910 nM | toxicity to HEK 293T cells (HEK 293T cells [1]; human, 48 h): equally toxic to HEK 293T cells | Efficacy (%) (independent screen, HEK 293T) (HEK 293T cells [2]): 112% | Independent Screen (confirmation of HEK 293T toxicity) (HEK 293T cells [2]): Confirmed toxic | IC50 (HEK 293T cells [2]): 1110 nM

COc1cc(Nc2ncc(F)c(Nc3ccc4c(n3)N(COP(=O)(O)O)C(=O)C(C)(C)O4)n2)cc(OC)c1OC [Fostamitinib]
IC50 ([5]; Homo sapiens): 6240 ± 4060 nM | Average SI [5]: >100 | Average SI ([5]; listed as fostamatinib): > 100

COc1ccc(-c2ccc3ncc4c(c3c2)n(-c2ccc(N3CCNCC3)c(C(F)(F)F)c2)c(=O)n4C)cn1 [NVP-BGT226]
IC50 [3, 11]: 5.34 ± 6.56 µM | Average SI [3, 7]: 0.20 ± 0.26 | Efficacy (%) (HEK 293T toxicity) (HEK 293T cells [1]; [6]): 106% | IC50 (HEK 293T cells [1]; Homo sapiens, HEK-293T, 48 h): 258 nM | Efficacy (%) (independent screen, HEK 293T) (HEK 293T cells [2]): 115% | Independent Screen (confirmation of HEK 293T toxicity) (HEK 293T cells [2]): Confirmed toxic | IC50 (HEK 293T cells [2]): 14.5 nM

CC[C@@H]1C(=O)N(C)c2cnc(Nc3ccc(C(=O)N[C@H]4CC[C@H](N5CCN(CC6CC6)CC5)CC4)cc3OC)nc2N1C(C)C [Volasertib]
IC90 [3, 10]: 90 nM | Cell Lines Active [3]: 4 | IC50 [4, 8]: 0.0709 ± 0.00735 µM | Average SI [4, 9]: 131 ± 13.5

C=CC(=O)Nc1cccc(Oc2nc(Nc3ccc(N4CCN(C)CC4)cc3)ncc2Cl)c1 [WZ3146]
IC50 [5]: 12300 ± 8520 nM | Average SI [5]: >100

COc1ccc2cc3[n+](cc2c1OC)CCc1cc2c(cc1-3)OCO2 [Berberine]
IC50 [4, 8]: 4.41 ± 0.662 µM

i-Bet-151
IC50 ([4]; Placental cancer cell line killer, mean of cell lines fulfilling criteria, 48 h, read-out: Average IC50): 19.3 ± 9.13 µM | Average SI [4, 9]: >100

CCc1c2c(nc3ccc(O)cc13)-c1cc3c(c(=O)n1C2)COC(=O)[C@]3(O)CC [SN-38]
IC90 ([3]; average IC90 over the cell lines in which the compound is active, read-out: IC90): 592 nM | Cell Lines Active [3]: 4

CC(C)CC(=O)Nc1[nH]nc2c1CN(C(=O)C1CCN(C)CC1)C2(C)C [PHA-793887]
IC50 (PA-1 cells): 194 nM | Avg SI (PA-1 cells): 12.3

CNC(=O)c1ccccc1Nc1nc(Nc2ccc(N3CCOCC3)cc2OC)ncc1Cl [TAE226]
IC50 [5]: 5320 ± 1420 nM | Average SI [5]: 8.76 ± 2.40

CC[C@@H]1C(=O)N(C)c2cnc(Nc3ccc(C(=O)NC4CCN(C)CC4)cc3OC)nc2N1C1CCCC1 [BI-2536]
IC90 ([3]; Homo sapiens): 39.7 nM | Cell Lines Active [3]: 4

CC(C)C[C@H](NC(=O)[C@@H](NC(=O)c1cccc(-c2ccccc2)n1)[C@@H](C)O)B(O)O [CEP-18770 (Delanzomib)]
IC90 [3, 10]: 391 nM | Cell Lines Active [3]: 6

CN(C)C1CCN(C(=O)c2ccc(NC(=O)Nc3ccc(-c4nc(N5CCOCC5)nc(N5CCOCC5)n4)cc3)cc2)CC1 [Gedatolisib]
IC90 ([3]; Homo sapiens): 6800 nM | Cell Lines Active [3]: 4
